Measured values published in patent US10351578B2, “Heterocyclic-substituted pyridinopyrimidinone derivative as CDK inhibitor and use thereof” (Shanghai Xunhe Pharmaceutical Technology Co. Ltd., priority 2016, dated 2019).

How the values were obtained:
[1] = biological target: T1, CDK4 protein kinase (GST-CDK4(1-303 end)) (Homo sapiens, UniProt P11802); assay: CDK4 protein kinase activity, Caliper mobility shift assay; format: biochemical; conditions: substrate Peptide FAM-P8, 28° C. for 3 h
T1 construct: GST-CDK4(1-303 end); GST (N)
Experimental: (§1) Activity Assay: The CDK4 protein kinase activity was measured using the Caliper mobility shift assay (see J. Biomol. Screen, 2009, PP31). The test compound was dissolved in DMSO and diluted with a kinase buffer solution (20 mM HEPES-pH 7.5, 0.01% Triton X-100, 10 mM MgCl2, 2 mM DTT) and 5 μL of the compound at 5-fold final concentration of reaction dissolved in 10% DMSO was added in a 384-well plate. The compound-free control well was 5 μL of 10% DMSO, and the no-activity control well was 5 μL of kinase buffer. 10 μL of a 2.5-fold diluted CDK4 enzyme solution (GST-CDK4(1-303 end)) was added and incubated at room temperature for 10 min, and then 10 μL of the 2.5-fold diluted substrate solution Peptide FAM-P8 was added. The reaction was stopped by adding 25 μL of stop solution after incubation at 28° C. for 3 h, and the conversion rate data was read on a Caliper EZ Reader II (Caliper Life Sciences) and the conversion rate was converted to inhibition rate data according to above method. Among them, the inhibition rate %=(max−conversion)/(max−min)×100%.

[2] = biological target: T2, CDK6 protein kinase (GST-CDK6(1-326 end)) (Homo sapiens, UniProt Q00534); assay: CDK6 protein kinase activity, Caliper mobility shift assay; format: biochemical; conditions: substrate Peptide FAM-P8, 28° C. for 3 h
T2 construct: GST-CDK6(1-326 end); GST (N)
Experimental: as §1, with “CDK6” for “CDK4”, “(GST-CDK6(1-326” for “(GST-CDK4(1-303”

T2 sequence (Q00534 whole entry): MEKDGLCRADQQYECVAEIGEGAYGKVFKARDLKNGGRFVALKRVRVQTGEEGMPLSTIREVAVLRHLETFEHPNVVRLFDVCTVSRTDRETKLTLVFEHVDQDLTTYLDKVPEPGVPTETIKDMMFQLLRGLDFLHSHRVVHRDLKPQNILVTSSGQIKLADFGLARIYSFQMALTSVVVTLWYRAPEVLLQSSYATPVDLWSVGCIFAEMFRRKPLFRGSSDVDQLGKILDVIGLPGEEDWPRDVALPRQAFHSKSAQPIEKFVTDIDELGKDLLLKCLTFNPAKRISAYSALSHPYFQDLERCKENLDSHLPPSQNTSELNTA
T2 sequence (P30281 whole entry partner): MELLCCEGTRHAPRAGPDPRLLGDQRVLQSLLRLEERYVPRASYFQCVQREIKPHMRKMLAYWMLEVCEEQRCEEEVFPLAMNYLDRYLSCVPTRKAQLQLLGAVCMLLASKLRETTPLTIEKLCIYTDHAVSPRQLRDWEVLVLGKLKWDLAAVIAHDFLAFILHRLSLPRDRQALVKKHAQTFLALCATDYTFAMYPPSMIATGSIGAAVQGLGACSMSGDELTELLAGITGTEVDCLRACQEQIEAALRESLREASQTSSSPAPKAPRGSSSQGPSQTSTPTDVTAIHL
T1 sequence (P11802 whole entry): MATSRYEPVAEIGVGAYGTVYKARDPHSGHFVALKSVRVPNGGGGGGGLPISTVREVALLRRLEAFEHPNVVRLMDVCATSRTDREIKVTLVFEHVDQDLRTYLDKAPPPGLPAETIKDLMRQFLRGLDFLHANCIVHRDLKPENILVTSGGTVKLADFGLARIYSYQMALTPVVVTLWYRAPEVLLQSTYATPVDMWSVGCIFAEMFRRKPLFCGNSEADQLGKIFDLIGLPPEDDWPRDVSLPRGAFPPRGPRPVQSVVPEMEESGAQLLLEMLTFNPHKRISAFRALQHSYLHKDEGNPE
T1 sequence (P30281 whole entry partner): as the sequence (P30281 whole entry partner) above

SMILES | IC50 [1] | IC50 [2]
CC1(C)Oc2cnc(Nc3ccc(N4CCNCC4)cn3)nc2N(c2ccccc2)C1=O [Compound I-35, 6,6-dimethyl-8-phenyl-2-(5-(1-piperazinyl)-pyridin-2-amino)-6H-pyrimido[5,4-b][1,4]oxazin-7(8H)-one] | 20 to 100 nM | 20 to 100 nM
O=C1N(C2CCCC2)c2nc(Nc3ccc(N4CCNCC4)cn3)ncc2OC12CCCCCC2 [Compound I-8, 8′-cyclopentyl-2′-(5-(1-piperazinyl)-pyridin-2-amino)spiro[cyclohepta-1,6′-pyrimido[5,4-b][1,4]oxazin]-7′(8′H)-one] | ≤ 20 nM | 20 to 100 nM
CCN1CCN(Cc2ccc(Nc3ncc4c(n3)N(c3ncccn3)C(=O)C(C)(C)O4)nc2)CC1 [Compound I-31, 6,6-dimethyl-8-(2-pyrimidinyl)-2-(5-(4-ethyl-1-piperazinyl)methyl-pyridine-2-amino)-6H-pyrimido[5,4-b][1,4]oxazin-7(8H)-one] | ≤ 20 nM | ≤ 20 nM
CC1(C)Oc2cnc(Nc3ccc(N4CCN(C5CCC5)CC4)cn3)nc2N(C2CCCC2)C1=O [Compound I-20, 6,6-dimethyl-8-cyclopentyl-2-(5-(4-cyclobutyl-1-piperazinyl)-pyridin-2-amino)-6H-pyrimido[5,4-b][1,4]oxazin-7(8H)-one] | ≤ 20 nM | ≤ 20 nM
N#CC1Oc2cnc(Nc3ccc(N4CCNCC4)cn3)nc2N(C2CCCC2)C1=O (stereo not shown) [Compound I-10, 6-cyano-8-cyclopentyl-2-(5-(1-piperazinyl)-pyridin-2-amino)-6H-pyrimido[5,4-b][1,4]oxazin-7(8H)-one] | ≤ 20 nM | 100 to 500 nM
CCC(C)N1C(=O)C(C2CCCC2)Sc2cnc(Nc3ccc(CN4CCNCC4)cn3)nc21 (stereo not shown) [Compound I-17, 6-cyclopentyl-8-sec-butyl-2-(5-(1-piperazinyl)methyl-pyridin-2-amino)-6H-pyrimido[5,4-b][1,4]thiazin-7(8H)-one] | ≤ 20 nM | > 500 nM
CCN1CCN(Cc2ccc(Nc3ncc4c(n3)N(C3CCCC3)C(=O)C(C3CCC3)O4)nc2)CC1 (stereo not shown) [Compound I-14, 6-cyclobutyl-8-cyclopentyl-2-(5-(4-ethyl-1-piperazinyl)methyl-pyridin-2-amino)-6H-pyrimido[5,4-b][1,4]oxazin-7(8H)-one] | ≤ 20 nM | ≤ 20 nM
O=C1N(C2CCCC2)c2nc(Nc3ccc(N4CCNCC4)cn3)ncc2OC12CCCC2 [Compound I-6, 8′-cyclopentyl-2′-(5-(1-piperazinyl)-pyridin-2-amino)spiro[cyclopenta-1,6′-pyrimido[5,4-b][1,4]oxazin]-7′(8′H)-one] | ≤ 20 nM | 20 to 100 nM

Next, values leading:

IC50 [1] | IC50 [2] | SMILES
≤ 20 nM | 20 to 100 nM | CCC(CC)N1C(=O)C(C)(C)Oc2cnc(Nc3ccc(N4CCNCC4)cn3)nc21 [Compound I-37, 6,6-dimethyl-8-(3-pentyl)-2-(5-(1-piperazinyl)-pyridin-2-amino)-6H-pyrimido[5,4-b][1,4]oxazin-7(8H)-one]
≤ 20 nM | 20 to 100 nM | O=C1N(C2CCCC2)c2nc(Nc3ccc(N4CCNCC4)cn3)ncc2OC1(F)F [Compound I-12, 6,6-difluoro-8-cyclopentyl-2-(5-(1-piperazinyl)-pyridin-2-amino)-6H-pyrimido[5,4-b][1,4]oxazin-7(8H)-one]
≤ 20 nM | ≤ 20 nM | O=C1C(C2CC2)Oc2cnc(Nc3ccc(N4CCNCC4)cn3)nc2N1C1CCCC1 (stereo not shown) [Compound I-13, 6-cyclopropyl-8-cyclopentyl-2-(5-(1-piperazinyl)-pyridin-2-amino)-6H-pyrimido[5,4-b][1,4]oxazin-7(8H)-one]
